Source: article PMC7354492, “Drugs Commonly Applied to Kidney Patients May Compromise Renal Tubular Uremic Toxins Excretion” (Toxins, 2020)
Counter-ions that a name gives are not always drawn. Like-named read-outs stand apart in the source and are kept apart here.

Experiments:
[1] = cited from earlier work
OAT1 [2] = target: T1, OAT1 (Homo sapiens, UniProt Q4U2R8); assay: OAT1-mediated fluorescein uptake inhibition assay in ciPTEC-OAT1; settings: for lowest drug concentration with statistically significant decrease (p<0.05) of % fluorescein uptake, with IS: co-incubation with IS; for lowest drug concentration with statistically significant decrease (p<0.05) of % fluorescein uptake, with IS / lowest drug concentration with statistically significant decrease (p<0.05) of % fluorescein uptake, with KA / lowest drug concentration with statistically significant decrease (p<0.05) of % fluorescein uptake, with PCS: reference = toxin alone; for lowest drug concentration with statistically significant decrease (p<0.05) of % fluorescein uptake, with KA: co-incubation with KA; for lowest drug concentration with statistically significant decrease (p<0.05) of % fluorescein uptake, with PCS: co-incubation with PCS; for IC50 at 10 min: human, ciPTEC-OAT1 mature monolayers, pH 7.4, probe fluorescein 1 µM
T1 sequence (Q4U2R8 1-563): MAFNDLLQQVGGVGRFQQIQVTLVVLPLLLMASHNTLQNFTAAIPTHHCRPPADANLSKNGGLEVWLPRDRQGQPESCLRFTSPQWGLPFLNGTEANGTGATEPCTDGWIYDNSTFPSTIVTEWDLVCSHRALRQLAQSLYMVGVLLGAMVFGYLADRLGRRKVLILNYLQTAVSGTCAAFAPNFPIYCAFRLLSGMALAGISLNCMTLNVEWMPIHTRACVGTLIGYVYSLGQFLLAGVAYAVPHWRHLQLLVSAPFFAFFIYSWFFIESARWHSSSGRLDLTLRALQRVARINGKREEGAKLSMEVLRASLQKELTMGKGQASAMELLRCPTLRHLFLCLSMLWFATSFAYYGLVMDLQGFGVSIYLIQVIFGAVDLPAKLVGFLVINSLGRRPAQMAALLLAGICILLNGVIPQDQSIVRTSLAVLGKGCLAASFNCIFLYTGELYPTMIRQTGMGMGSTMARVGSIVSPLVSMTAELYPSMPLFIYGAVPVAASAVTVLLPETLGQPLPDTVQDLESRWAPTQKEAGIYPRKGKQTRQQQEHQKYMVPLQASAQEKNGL
Method: Uptake arrest was performed by washing with ice-cold HBSS (Life Technologies Europe BV, Roskilde, Denmark), and then the cells were lysed by 100 µL 0.1 M NaOH for 10 min, at room temperature and under mild shaking. […] Background values were subtracted and normalized arbitrary fluorescence unit (AFU) data were converted into percentage (%).
In order to replicate the uremic condition present in CKD patients, a specific mixture of eight known anionic PBUTs (Table S1), predominantly derived from endogenous metabolism pathways and food digestion in the gut, was used at concentrations corresponding to those found in patients.
All data are expressed as mean ± standard deviation (SD) of at least three separate experiments. Inhibition data were fitted according to one-site total binding saturation curve using non-linear regression analysis ((inhibitor) vs. response-variable slope) and Vmax values were calculated according to Michaelis-Menten kinetics using non-linear regression analysis. […] All experiments were performed four times.

[3] = Human clearance and half life of tested drugs; assay type: in vivo
[4] = cited from earlier work; for T1/2 (pharmacologic half life): ref 44 (pravastatin: ref 45)
plasma proteins = settings: cited from earlier work; for Protein Binding (%): ref www.drugbank.ca; for bound to plasma proteins: PBUTs in plasma, ref 68 (IS, PCS), ref 69 (KA)
OAT1 [5] = target: T1, OAT1; settings: read-out: IC50 of uremic toxin in ciPTEC-OAT1 system; cited from earlier work
OAT1 [6] = settings: read-out: IC50 (uric acid uptake, OAT1); OAT1-expressing Flp-HEK293 cells; ref Sato et al. [58]; cited from earlier work
[7] = substrate: O=C1OC2(c3ccc(O)cc3Oc3cc(O)ccc32)c2ccccc21; assay: cells, lysate or membranes; settings: pH 7.4; 37.0 °C
[8] = co-incubation with UTox, lowest drug concentration

Row | Molecule | Therapeutic Concentrations ([1]; ref 44 (pravastatin: ref 45)) [µM] | IC50 (OAT1 [2]) [µM] | Renal Clearance (% of Total CL) [3] [%] | Renal CL ([4]; human) [mL/min/kg] | T1/2 (pharmacologic half life) [4] | Protein Binding (%) (plasma proteins) | other results
1 | C[C@H](CS)C(=O)N1CCC[C@H]1C(=O)O [Captopril, captopril] | 0.2 to 5 | 2020 ± 465 | – | – | – | – | –
2 | CN/C(=N/CCSCc1nc[nH]c1C)NC#N [Cimetidine] | 1 to 16 | 888 ± 198 | 97 | 7.9 | 1.5–4 h | 20% | –
3 | C[C@H](N[C@@H](CCc1ccccc1)C(=O)O)C(=O)N1CCC[C@H]1C(=O)O [Enalaprilate, enalaprilate] | 0.04 to 0.4 | – | 100 | 1.6 | 8–11 h | 50% | Total CL ([4]; human): 1.6 mL/min/kg; inhibition of human OAT1 (in words) (OAT1 [2]; captopril and enalaprilate only at high concentrations with no therapeutic relevance): inhibited
4 | NS(=O)(=O)c1cc(C(=O)O)c(NCc2ccco2)cc1Cl [Furosemide, furosemide] | 6 to 30 | – | – | – | – | – | –
5 | O=S(=O)(O)Oc1c[nH]c2ccccc12 [Indoxyl sulfate] | – | – | – | – | – | – | bound to plasma proteins (plasma proteins): 90–95%
6 | O=C(O)[C@H]1O[C@@H](Oc2c[nH]c3ccccc23)[C@H](O)[C@@H](O)[C@@H]1O [Indoxyl-β-D-glucoronide, indoxyl-β-D-glucoronide] | – | – | – | – | – | – | IC50 (OAT1 [5]): 492 ± 68 µM
7 | O=C(O)c1cc(=O)c2ccccc2[nH]1 [Kynurenic acid, kynurenic acid] | – | – | – | – | – | – | bound to plasma proteins (plasma proteins): 70%
8 | NCCCC[C@H](N[C@@H](CCc1ccccc1)C(=O)O)C(=O)N1CCC[C@H]1C(=O)O [Lisinopril, lisinopril] | 0.01 to 0.16 | – | 100 | – | – | negligible | –
9 | CCCCc1nc(Cl)c(CO)n1Cc1ccc(-c2ccccc2-c2nn[nH]n2)cc1 [Losartan, losartan] | 0.5 to 1.5 | 8.6 ± 2.5 | 11 | 0.9 | 1.5–2 h | 99% | IC50 (OAT1 [6]): 12 µM; lowest drug concentration with statistically significant decrease (p<0.05) of % fluorescein uptake, with IS (OAT1 [2]): 1 µM; lowest drug concentration with statistically significant decrease (p<0.05) of % fluorescein uptake, with KA (OAT1 [2]): 5 µM; lowest drug concentration with statistically significant decrease (p<0.05) of % fluorescein uptake, with PCS (OAT1 [2]): 1 µM; Percentage (%) Fluorescein Uptake at the Lowest Drug Concentration in the presence of UTox (OAT1 [2]; [8]): 23.5 ± 3.5%; IC50 at 10 min (OAT1 [2]): 3.1 ± 0.7 µM
10 | CC[C@H](C)C(=O)O[C@H]1C[C@H](O)C=C2C=C[C@H](C)[C@H](CC[C@@H](O)C[C@@H](O)CC(=O)O)[C@H]21 [Pravastatin, pravastatin] | 0.08 to 0.3 | 13.8 ± 8.5 | 45 | 6.3 | 1–2.5 h | 60% | Therapeutic Concentrations ([1]; second value in cell): 0.43 µM; lowest drug concentration with statistically significant decrease (p<0.05) of % fluorescein uptake, with IS (OAT1 [2]): 5 µM; lowest drug concentration with statistically significant decrease (p<0.05) of % fluorescein uptake, with KA (OAT1 [2]): 5 µM; lowest drug concentration with statistically significant decrease (p<0.05) of % fluorescein uptake, with PCS (OAT1 [2]): 1 µM; Percentage (%) Fluorescein Uptake at the Lowest Drug Concentration in the presence of UTox (OAT1 [2]; [8]): 27.8 ± 2.6%; IC50 at 10 min (OAT1 [2]): 23.2 ± 8.3 µM
11 | CCC(C)(C)C(=O)O[C@H]1C[C@@H](C)C=C2C=C[C@H](C)[C@H](CC[C@@H]3C[C@@H](O)CC(=O)O3)[C@H]21 [Simvastatin, simvastatin] | – | – | 13 | – | 2 h | – | –
12 | CCCCC(=O)N(Cc1ccc(-c2ccccc2-c2nnn[nH]2)cc1)[C@H](C(=O)O)C(C)C [Valsartan, valsartan] | 2 to 14 | 11.5 ± 3.5 | 29 | 0.14 | 6–9 h | 94–97% | IC50 (OAT1 [6]): 16 µM; Percentage (%) Fluorescein Uptake at the Lowest Drug Concentration in the presence of UTox (OAT1 [2]): 24.7 ± 4.5%
13 | Cc1ccc(O[C@@H]2O[C@H](C(=O)O)[C@@H](O)[C@H](O)[C@H]2O)cc1 [p-Cresylglucuronide, p-cresylglucuronide] | – | – | – | – | – | – | IC50 (OAT1 [5]): 2650 ± 922 µM
14 | Cc1ccc(OS(=O)(=O)O)cc1 [p-Cresylsulfate, p-cresylsulfate] | – | – | – | – | – | – | IC50 (OAT1 [5]): 79 ± 14 µM; bound to plasma proteins (plasma proteins): 90–95%
15 | OAT1 (Homo sapiens) (protein) MAFNDLLQQVGGVGRFQQIQVTLVVLPLLLMASHNTLQNFTAAIPTHHCRPPADANLSKNGGLEVWLPRDRQGQPESCLRFTSPQWGLPFLNGTEANGTGATEPCTDGWIYDNSTFPSTIVTEWDLVCSHRALRQLAQSLYMVGVLLGAMVFGYLADRLGRRKVLILNYLQTAVSGTCAAFAPNFPIYCAFRLLSGMALAGISLNCMTLNVEWMPIHTRACVGTLIGYVYSLGQFLLAGVAYAVPHWRHLQLLVSAPFFAFFIYSWFFIESARWHSSSGRLDLTLRALQRVARINGKREEGAKLSMEVLRASLQKELTMGKGQASAMELLRCPTLRHLFLCLSMLWFATSFAYYGLVMDLQGFGVSIYLIQVIFGAVDLPAKLVGFLVINSLGRRPAQMAALLLAGICILLNGVIPQDQSIVRTSLAVLGKGCLAASFNCIFLYTGELYPTMIRQTGMGMGSTMARVGSIVSPLVSMTAELYPSMPLFIYGAVPVAASAVTVLLPETLGQPLPDTVQDLESRWAPTQKEAGIYPRKGKQTRQQQEHQKYMVPLQASAQEKNGL | – | – | – | – | – | – | Km [7]: 0.93 ± 0.09 µM
